Our source for the inhibition in vivo values is US4535081A, “Antiallergic and antiulcer 1-oxo-1H-thiazolo[3,2-a]pyrimidine-2-carboxamides and intermediates therefor” (Pfizer Inc., priority 1983, dated 1985).

The structures appear in SMILES notation. Where two headings read alike, the source gives them in different places.

Test [1] has as its system IgG (hyperimmune antiserum) PCA reaction. The experiment in a line: Oral activity in PCA test, IgG. It counts as in vivo. Particulars: Rattus norvegicus. Here is the method: (§1) The antiallergy property of the compounds of this invention is evaluated by the passive cutaneous anaphylaxis (PCA) test (Ovary, J. Immun., 81, 355, 1958). In the PCA test, normal animals are injected intradermally (i.d.) with antibodies contained in serum obtained from actively sensitized animals. The animals are then challenged intravenously with antigen mixed with a dye such as Evans' Blue. The increased capillary permeability caused by the antigen-antibody reaction causes the dye to leak from the site of the antibody injection. The test animals are then asphyxiated and the intensity of the reaction determined by measuring the diameter and intensity of the blue coloration on the inner surface of the animals' skin.
(§2) The ability of agents to interfere with PCA reactions is measured in male Charles River Wistar rats, 170-210 g. Reaginic antiserum, rich in IgE antibodies, is prepared according to Petillo et al., Int. Arch. Allergy, 44, 309 (1973). Hyperimmune antiserum rich in IgG antibodies to hen egg albumin is prepared according to Orange et al., J. Exptl. Med., 127, 767 (1968). Forty-eight hours prior to antigen challenge, the reaginic antiserum is injected intradermally (i.d.) into the shaved skin of a normal rat's back; 5 hours before challenge the hyperimmune antisera is similarly injected. At a third site 60 mcg. histamine dihydrochloride and 0.5 mcg. serotonin creatinine sulfate are injected i.d. just prior to antigen challenge as a check for antihistaminic, antiserotonin and unspecific types of blockage; the compounds of the instant invention or saline are then administered i.v. and immediately followed by the challenge of 5 mg. egg albumen and 2.5 mg. Evans' Blue dye in saline. In the case of oral administration Evans' Blue dye and egg albumin are given 5 minutes after administration of the drug. Thirty minutes later the animals are asphyxiated using chloroform and the skin of the back removed and reversed for observation. A score is assigned each injection site equal to the product of the diameter of the site in mm. and a grade of 0.1, 0.5, 1, 2, 3 or 4 proportional to intensity of dye coloration. The scores for a given injection site are summed for each group of five animals and compared to the saline treated controls. The difference is expressed as percent blockage due to the compound employed.
Compounds representative of those of the present invention are tested for antiallergy activity by the above-described procedure and the resulting activities are reported as the degree (%) of protection.

Test [2] deals with IgE (reaginic antiserum) PCA reaction. Description: Oral activity in PCA test, IgE. It is filed as in vivo, rat. The following applies: Rattus norvegicus, IgE, oral. Here is the method:
as §1
The PCA test is a measure of the anti-allergic (especially anti-asthmatic) activity of a compound. Compounds which inhibit a positive PCA test induced by the rat immunochemical counterpart of human immunoglobulin E (IgE), or reagin, are considered to have anti-allergic activity (C. Mota, Ann. N.Y. Acad. Sci., 103, 264 1963). (Reagin is primarily immunoglobulin E [IgE] and is the principal immunoglobulin responsible for allergic asthma, anaphylaxis, hay fever, food sensitivities and certain manifestations of drug sensitivities, although recent evidence ascribes to the IgG class of antibodies a significant role in the mediation of allergic diseases). Such compounds when administered to a sensitized subject, human or animal, prior to the time when the subject comes into contact with antigens or substances to which it is allergic, will prevent the allergic reaction which would otherwise occur. They, therefore, provide a method for the prophylactic treatment of allergy or anaphylactic reactions of a reagin mediated nature.
To put it another way, such compounds block the release of mediators resulting from the antigen-antibody (allergic) reaction as illustrated in the PCA test using rat homocytotropic antibody--a known correlate of human reaginic antibody. Inhibition of reaginic antigen-antibody reactions in rats, the test animal of the PCA test, is regarded as representative of inhibition of human reaginic antigen-antibody reactions which occur during allergic episodes.
as §2, with “employed. […]” for “employed.”

Where [3] appears, read: Table II acids, read-out: Oral Activity (% of Protection) of Acids in the PCA Test, IgG.
Where [4] appears, read: Table II acids, read-out: Oral Activity (% of Protection) of Acids in the PCA Test, IgE.
Setting [5] is: Table I amides, read-out: Oral Activity (% of Protection) in the PCA Test, IgG.
[6] abbreviates: Table I amides, read-out: Oral Activity (% of Protection) in the PCA Test, IgE.

Regarding `CCC(C)c1csc2ncc(C(=O)O)c(=O)n12` (centres unmarked) [1-Oxo-1H-7-(2-butyl)thiazolo[3,2-a]pyrimidine-2-carboxylic Acid], the inhibition in vivo at 30 mg/kg was found to be 8% in test [1] (setting [3]) and 1% in test [2] (setting [4]).

With `O=C(Nc1nnn[nH]1)c1cnc2sc3c(n2c1=O)CCC3` [Formula I: (CH2)3, N-(5-Tetrazolyl)-1-oxo-1H-cyclopentenothiazolo[3,2-a]pyrimidine-2-carboxamide], the inhibition in vivo at 1 mg/kg worked out at 43% in test [1] (1 mg./kg., read-out: Oral Activity (% of Protection) in the PCA Test, IgG) and 46% in test [2] (1 mg./kg., read-out: Oral Activity (% of Protection) in the PCA Test, IgE).

For the compound `O=C(Nc1nnn[nH]1)c1cnc2sc3c(n2c1=O)CCCCC3` [Formula I: (CH2)5, N-(5-Tetrazolyl)-1-oxo-1H cycloheptenothiazolo[3,2-a]pyrimidine-2-carboxamide], the inhibition in vivo at 30 mg/kg in test [1] (setting [5]) turned out to be 38%; in test [2] (setting [6]) it was 25%.

With `CCc1sc2ncc(C(=O)Nc3nnn[nH]3)c(=O)n2c1C` [Formula I: R1=C2H5, R2=CH3, N-(5-Tetrazolyl)-1-oxo-1H-6-ethyl-7-methylthiazolo[3,2-a]pyrimidine-2-carboxamide], the values for the inhibition in vivo at 30 mg/kg in test [1] (setting [5]) and in test [2] (setting [6]) were 28% and 29%, respectively.

For the compound `CCc1c(C)sc2ncc(C(=O)Nc3nnn[nH]3)c(=O)n12` [Formula I: R1=CH3, R2=C2H5, N-(5-Tetrazolyl)-1-oxo-1H-6-methyl-7-ethylthiazolo[3,2-a]pyrimidine-2-carboxamide], the inhibition in vivo at 30 mg/kg is 57% in test [1] (setting [5]) and 75% in test [2] (setting [6]).

For `CCc1csc2ncc(C(=O)Nc3nnn[nH]3)c(=O)n12` [Formula I: R1=H, R2=C2H5, N-(5-Tetrazolyl)-1-oxo-1H-7-ethylthiazolo[3,2-a]pyrimidine-2-carboxamide], the inhibition in vivo at 30 mg/kg in test [1] (setting [5]) stood at 44%; in test [2] (setting [6]) it was 70%.

As to `CC(C)(C)c1csc2ncc(C(=O)Nc3nnn[nH]3)c(=O)n12` [Formula I: R1=H, R2=C(CH3)3, N-(5-Tetrazolyl)-1-oxo-1H-7-(2-methyl-2-propyl)thiazolo[3,2-a]pyrimidine-2-carboxamide], the inhibition in vivo at 30 mg/kg worked out at 20% in test [1] (setting [5]) and 37% in test [2] (setting [6]).

For `CC(C)c1csc2ncc(C(=O)Nc3nnn[nH]3)c(=O)n12` [Formula I: R1=H, R2=CH(CH3)2, N-(5-Tetrazolyl)-1-oxo-1H-7-isopropylthiazolo[3,2-a]pyrimidine-2-carboxamide], the values for the inhibition in vivo at 30 mg/kg in test [1] (setting [5]) and in test [2] (setting [6]) were 53% and 72%, respectively.

With `O=C(Nc1nnn[nH]1)c1cnc2sccn2c1=O` [Formula I: R1=H, R2=H], the inhibition in vivo at 30 mg/kg was found to be 46% in test [1] (setting [5]) and 50% in test [2] (setting [6]).

For `O=C(O)c1cnc2sc3c(n2c1=O)CCC3` [Formula II: (CH2)3, 1-Oxo-1H-cyclopentenothiazolo[3,2-a]pyrimidine-2-carboxylic Acid], the inhibition in vivo at 30 mg/kg in test [1] (setting [3]) and in test [2] (setting [4]) was 0% in each case.

For `O=C(O)c1cnc2sc3c(n2c1=O)CCCCC3` [Formula II: (CH2)5, 1-Oxo-1H-cycloheptenothiazolo[3,2-a]pyrimidine-2-carboxylic Acid], the inhibition in vivo at 30 mg/kg in test [1] (setting [3]) was found to be 44%; in test [2] (setting [4]), 37%.

Regarding `O=C(O)c1cnc2sc3c(n2c1=O)CCCCCC3` [Formula II: (CH2)6, 1-Oxo-1H-cyclooctenothiazolo[3,2-a]pyrimidine-2-carboxylic Acid], the inhibition in vivo at 10 mg/kg in test [1] (10 mg./kg., Table II acids, read-out: Oral Activity (% of Protection) of Acids in the PCA Test, IgG) came to 15%; in test [2] (10 mg./kg., Table II acids, read-out: Oral Activity (% of Protection) of Acids in the PCA Test, IgE), 36%. The figures for the inhibition in vivo at 30 mg/kg in test [1] (setting [3]) and in test [2] (setting [4]) were 45% and 68%, respectively.

Regarding `CC1(C)CCc2c(sc3ncc(C(=O)O)c(=O)n23)C1` [Formula II: CH2C(CH3)2CH2CH2, 1-Oxo-1H-7,7-dimethylcyclohexenothiazolo[3,2-a]pyrimidine-2-carboxylic Acid], the results for the inhibition in vivo at 30 mg/kg in test [1] (setting [3]) and in test [2] (setting [4]) were 6% and 13%, respectively.

Consider `O=C(O)c1cnc2sc3c(n2c1=O)CCC(c1ccccc1)C3` (centres unmarked) [Formula II: CH2CH(C5H6)CH2CH2, 1-oxo-1H-7-phenylcyclohexenothiazolo[3,2-a]pyrimidine-2-carboxylic Acid], for which the figures for the inhibition in vivo at 30 mg/kg in test [1] (setting [3]) and in test [2] (setting [4]) were 5% and 15%, respectively.

`CC1CCc2c(sc3ncc(C(=O)O)c(=O)n23)C1` (centres unmarked) [Formula II: CH2CH(CH3)CH2CH2, 1-Oxo-1H-7-methylcyclohexenothiazolo[3,2-a]pyrimidine-2-carboxylic Acid]: the figures for the inhibition in vivo at 30 mg/kg in test [1] (setting [3]) and in test [2] (setting [4]) were 21% and 31%, respectively.

Regarding `CCc1sc2ncc(C(=O)O)c(=O)n2c1C` [Formula II: R1=C2H5, R2=CH3, 1-Oxo-1H-6-ethyl-7-methylthiazolo[3,2-a]pyrimidine-2-carboxylic Acid], the figures for the inhibition in vivo at 30 mg/kg in test [1] (setting [3]) and in test [2] (setting [4]) were 24% and 42%, respectively.

On to `CCc1c(C)sc2ncc(C(=O)O)c(=O)n12` [Formula II: R1=CH3, R2=C2H5, 1-Oxo-1H-6-methyl-7-ethylthiazolo[3,2-a]pyrimidine-2-carboxylic Acid], for which the inhibition in vivo at 30 mg/kg in test [1] (setting [3]) and in test [2] (setting [4]) was 0% throughout.

`CCc1csc2ncc(C(=O)O)c(=O)n12` [Formula II: R1=H, R2=C2H5, 1-Oxo-1H-7-ethylthiazolo[3,2-a]pyrimidine-2-carboxylic Acid]: the inhibition in vivo at 30 mg/kg in test [1] (setting [3]) was determined as 21%; in test [2] (setting [4]), 13%.

As for `CC(C)(C)c1csc2ncc(C(=O)O)c(=O)n12` [Formula II: R1=H, R2=C(CH3)3, 1-Oxo-1H-7-(2-methyl-2-propyl)thiazolo[3,2-a]pyrimidine-2-carboxylic Acid], the inhibition in vivo at 30 mg/kg in test [1] (setting [3]) is 6%; in test [2] (setting [4]), 10%.

With `CC(C)c1csc2ncc(C(=O)O)c(=O)n12` [Formula II: R1=H, R2=CH(CH3)2, 1-Oxo-1H-7-isopropylthiazolo[3,2-a]pyrimidine-2-carboxylic Acid], the inhibition in vivo at 30 mg/kg in test [1] (setting [3]) and in test [2] (setting [4]) was 0% throughout.

For `O=C(O)c1cnc2sccn2c1=O` [Formula II: R1=H, R2=H], the inhibition in vivo at 30 mg/kg in test [1] (setting [3]) was 7%; in test [2] (setting [4]), 18%.
